In US5100797A, “Fucosidase inhibitors” (priority 1989, dated 1992):

Key:
[1] = system: mammalian α-L-fucosidases; settings: background statement; cited from earlier work
[2] = target: Charonia lampas α-L-fucosidase; assay: Inhibition of Charonia lampas α-L-fucosidase (Lineweaver-Burk); assay type: biochemical; settings: para-nitrophenyl-α-L-fucopyranoside; sodium acetate buffer pH 4.5, 0.15 M NaCl; read-out: Ki (M) C. lampas α-L-fucosidase
Protocol: (§1) Post-mortem human liver, which had been stored at -20° C. until required was homogenized in deionized water (50%, w/v) in a Potter-Elvehjem homogenizer and then centrifuged at 37,000 g for 30 min in an MSE 18 centrifuge. The resultant supernatant was used as the source of human glycosidases. A lyophilized extract of liver from Charonia lampas was obtained from Seikagaku Kogyo Co., Japan for the isolation of α-L-fucosidase by the published procedure of Iijima and Egami, J. Biochem. 70, 75-78 (1971).
(§2) The glycosidase activities in an extract of human liver were assayed by using the appropriate fluorigenic 4-umbelliferyl glycoside substrate (Koch-Light, Haverhill, Suffolk, U.K.) with a concentration of 0.5 mM at the optimal pH for each enzyme [Burditt et al., Biochem. J. 189, 467-473 (1980)]. The specificity of the inhibitors was determined by assaying the glycosidases in the presence of and absence of a 1 mM solution of each compound. The nature of the inhibition of human α-L-fucosidase, the value of Ki determined by using the Dixon graphical procedure and the effect of pH on the inhibition were investigated as described previously by Al Daher et al., Biochem. J. 258, 613-615 (1989). Bovine epididymal and Charonia lampas α-L-fucosidase were assayed using para-nitrophenyl-α-L-fucopyranoside as substrate in phosphate-citrate buffer (McIlvaine), pH 6.0, and 0.005 M-sodium acetate buffer, pH 4.5 containing 0.15 M NaCl, respectively. The Lineweaver-Burk graphical procedure and secondary plots of the slope against inhibitor concentration were used to determine the nature of inhibition and the values of Ki for these activities.

[3] = target: T1, Bovine epididymal α-L-fucosidase (Bos taurus, UniProt Q2KIM0); assay: Inhibition of bovine epididymal α-L-fucosidase (Lineweaver-Burk); assay type: biochemical; settings: para-nitrophenyl-α-L-fucopyranoside; phosphate-citrate buffer pH 6.0; read-out: Ki (M) Bovine epididymis α-L-fucosidase
T1 construct: Bovine epididymal and Charonia lampas α-L-fucosidase were assayed; from tissue; host or cells: bovine epididymis
T1 sequence (Q2KIM0 23-468): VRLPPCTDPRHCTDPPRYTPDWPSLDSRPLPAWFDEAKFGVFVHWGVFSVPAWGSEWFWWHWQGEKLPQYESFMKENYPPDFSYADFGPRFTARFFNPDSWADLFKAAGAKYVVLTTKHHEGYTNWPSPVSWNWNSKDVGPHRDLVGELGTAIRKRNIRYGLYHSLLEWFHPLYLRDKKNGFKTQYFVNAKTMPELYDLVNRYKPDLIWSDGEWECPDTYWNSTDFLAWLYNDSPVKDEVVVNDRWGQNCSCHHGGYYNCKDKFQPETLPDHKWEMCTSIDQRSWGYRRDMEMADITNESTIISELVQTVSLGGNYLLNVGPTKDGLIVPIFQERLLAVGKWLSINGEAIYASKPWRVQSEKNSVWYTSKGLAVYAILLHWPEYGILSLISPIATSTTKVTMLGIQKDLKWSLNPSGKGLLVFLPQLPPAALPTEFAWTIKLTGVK
Protocol: as §2

β-D-galactosidase = target: T2, β-D-galactosidase (Homo sapiens, UniProt P16278); assay: Glycosidase specificity in human liver extract: β-D-galactosidase; assay type: biochemical; settings: read-out: Other specificities (% inhibition at 1 mM): β-D-galactosidase, 1 mM compound
T2 construct: 4-umbelliferyl glycoside substrate
T2 sequence (P16278 29-677): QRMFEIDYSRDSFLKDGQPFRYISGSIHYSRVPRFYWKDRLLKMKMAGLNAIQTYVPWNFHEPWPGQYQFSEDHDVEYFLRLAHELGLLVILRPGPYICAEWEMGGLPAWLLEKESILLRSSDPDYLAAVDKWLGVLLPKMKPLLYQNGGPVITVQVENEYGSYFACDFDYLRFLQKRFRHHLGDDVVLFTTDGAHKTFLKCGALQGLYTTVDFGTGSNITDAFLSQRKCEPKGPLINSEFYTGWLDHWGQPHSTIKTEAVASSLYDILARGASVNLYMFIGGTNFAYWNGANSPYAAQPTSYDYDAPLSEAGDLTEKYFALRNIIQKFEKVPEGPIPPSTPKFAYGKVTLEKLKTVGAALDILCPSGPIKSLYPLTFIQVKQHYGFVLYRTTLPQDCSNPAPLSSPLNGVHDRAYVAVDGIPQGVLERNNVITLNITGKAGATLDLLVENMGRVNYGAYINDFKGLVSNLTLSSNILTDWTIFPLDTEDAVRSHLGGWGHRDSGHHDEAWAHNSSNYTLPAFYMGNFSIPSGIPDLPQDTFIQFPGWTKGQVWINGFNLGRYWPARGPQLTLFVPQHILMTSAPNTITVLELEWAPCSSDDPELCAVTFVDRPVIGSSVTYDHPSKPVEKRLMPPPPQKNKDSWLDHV
Protocol: as §1
(§3) The glycosidase activities in an extract of human liver were assayed by using the appropriate fluorigenic 4-umbelliferyl glycoside substrate (Koch-Light, Haverhill, Suffolk, U.K.) with a concentration of 0.5 mM at the optimal pH for each enzyme [Burditt et al., Biochem. J. 189, 467-473 (1980)]. The specificity of the inhibitors was determined by assaying the glycosidases in the presence of and absence of a 1 mM solution of each compound. The nature of the inhibition of human α-L-fucosidase, the value of Ki determined by using the Dixon graphical procedure and the effect of pH on the inhibition were investigated as described previously by Al Daher et al., Biochem. J. 258, 613-615 (1989). […]

pKa of inhibitors = assay type: physicochemical
[4] = target: T3, human liver α-L-fucosidase (Homo sapiens, UniProt P04066); assay: Inhibition of human liver α-L-fucosidase (4-umbelliferyl glycoside substrate, Dixon plot); assay type: biochemical; settings: for fucosidase inhibition, in words: human liver α-L-fucosidase; for Ki: human liver extract, 4-umbelliferyl substrate 0.5 mM, Dixon graphical procedure
T3 construct: The resultant supernatant was used as the source of human glycosidases; from tissue; host or cells: post-mortem human liver, 37,000 g supernatant of homogenate
T3 sequence (P04066 32-466): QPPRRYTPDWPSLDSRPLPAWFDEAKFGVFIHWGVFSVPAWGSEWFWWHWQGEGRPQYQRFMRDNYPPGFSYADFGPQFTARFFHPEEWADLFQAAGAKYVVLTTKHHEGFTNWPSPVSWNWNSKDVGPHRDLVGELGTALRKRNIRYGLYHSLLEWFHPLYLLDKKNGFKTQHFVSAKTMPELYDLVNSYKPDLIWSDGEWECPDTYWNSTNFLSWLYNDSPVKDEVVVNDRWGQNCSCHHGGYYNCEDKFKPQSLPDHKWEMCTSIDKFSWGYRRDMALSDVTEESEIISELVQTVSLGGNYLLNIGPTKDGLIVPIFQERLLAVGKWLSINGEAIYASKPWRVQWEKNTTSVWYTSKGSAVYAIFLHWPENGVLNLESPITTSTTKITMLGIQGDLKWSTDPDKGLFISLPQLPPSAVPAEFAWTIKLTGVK
Protocol: Post-mortem human liver, which had been stored at -20° C. until required was homogenized in deionized water (50%, w/v) in a Potter-Elvehjem homogenizer and then centrifuged at 37,000 g for 30 min in an MSE 18 centrifuge. The resultant supernatant was used as the source of human glycosidases.
The specificity of the inhibitors was determined by assaying the glycosidases in the presence of and absence of a 1 mM solution of each compound. […] The Lineweaver-Burk graphical procedure and secondary plots of the slope against inhibitor concentration were used to determine the nature of inhibition and the values of Ki for these activities.

[5] = system: N-acetyl-β-D-hexosaminidase; assay: Glycosidase specificity in human liver extract: N-acetyl-β-D-hexosaminidase; assay type: biochemical; settings: 1 mM compound
Protocol: as §1, §2

α-glucosidase = settings: Kite et al. 1988; cited from earlier work
α-D-mannosidase = target: T4, α-D-mannosidase (Homo sapiens, UniProt O00754); assay: Glycosidase specificity in human liver extract: α-D-mannosidase; assay type: biochemical
T4 construct: The resultant supernatant was used as the source of human glycosidases; from tissue; host or cells: post-mortem human liver, 37,000 g supernatant of homogenate
T4 sequence (O00754 50-601 limits assumed): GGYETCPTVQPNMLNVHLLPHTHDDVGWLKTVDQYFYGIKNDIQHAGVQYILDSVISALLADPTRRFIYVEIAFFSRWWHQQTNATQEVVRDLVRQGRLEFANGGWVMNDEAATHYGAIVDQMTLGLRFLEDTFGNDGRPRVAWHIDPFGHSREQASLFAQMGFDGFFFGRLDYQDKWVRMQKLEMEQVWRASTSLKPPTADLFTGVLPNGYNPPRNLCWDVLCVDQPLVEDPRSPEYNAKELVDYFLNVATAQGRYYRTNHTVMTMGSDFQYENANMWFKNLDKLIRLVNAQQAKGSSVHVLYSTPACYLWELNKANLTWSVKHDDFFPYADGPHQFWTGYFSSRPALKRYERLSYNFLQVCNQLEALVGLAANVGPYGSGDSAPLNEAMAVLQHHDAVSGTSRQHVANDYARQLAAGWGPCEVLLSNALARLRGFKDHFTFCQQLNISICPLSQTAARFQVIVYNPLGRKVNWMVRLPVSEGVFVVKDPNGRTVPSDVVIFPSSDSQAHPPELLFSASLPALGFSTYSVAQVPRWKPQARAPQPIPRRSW
T4 sequence (O00754 602-882 limits assumed): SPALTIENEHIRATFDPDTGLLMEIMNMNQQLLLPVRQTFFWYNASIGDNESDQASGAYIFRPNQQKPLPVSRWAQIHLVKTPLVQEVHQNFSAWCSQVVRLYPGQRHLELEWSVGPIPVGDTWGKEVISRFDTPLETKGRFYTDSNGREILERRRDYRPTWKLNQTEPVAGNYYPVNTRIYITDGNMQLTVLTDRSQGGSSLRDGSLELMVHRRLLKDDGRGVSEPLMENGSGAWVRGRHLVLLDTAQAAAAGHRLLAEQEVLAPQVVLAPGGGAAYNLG
T4 sequence (O00754 883-1011 limits assumed): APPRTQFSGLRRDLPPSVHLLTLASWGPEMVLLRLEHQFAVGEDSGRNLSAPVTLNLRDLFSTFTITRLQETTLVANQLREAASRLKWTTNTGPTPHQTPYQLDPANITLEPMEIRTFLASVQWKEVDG
Protocol: as §1, §3

Compound	Ki [2] [M]	Ki [3] [M]	pKa (pKa of inhibitors)	fucosidase inhibition, in words [4]	Ki [4] [µM]	Other specificities (% inhibition at 1 mM): N-acetyl-β-D-hexosaminidase [5] [%]	other results
C[C@@H]1NC[C@@H](O)[C@H](O)[C@@H]1O [Compound 4, 1,5-Dideoxy-1,5-imino-L-fucitol]	–	–	–	–	–	–	inhibition of mammalian α-L-fucosidases, in words [1]: very powerful and highly specific inhibitor
C[C@@H]1N[C@H](CO)[C@@H](O)[C@H](O)[C@@H]1O [Compound 7, 2,6-Imino-2,6,7-trideoxy-L-glycero-D-mannohepitol]	1.4e-07	2e-08	7.1	did not diminish the inhibition of α-L-fucosidase	–	–	inhibition at 1000 µM (β-D-galactosidase): 27%
C[C@H]1[C@@H](O)[C@@H](O)[C@H](O)CN1C [MeFDJ, reference compound]	–	–	7.8	–	0.05	59	–
OC[C@H]1NC[C@H](O)[C@@H](O)[C@@H]1O [Compound 1, deoxynojirimycin]	–	–	–	–	–	–	inhibition of α-glucosidase activity, in words (α-glucosidase): potent inhibitors of α-glucosidase activity
CC[C@@H]1N[C@H](CO)[C@@H](O)[C@H](O)[C@@H]1O [Compound 8, β-1-C-Ethyl Deoxymannojirimycin]	5.8e-07	2e-06	7.8	very powerful fucosidase inhibitor	0.07	36	–
OC[C@H]1N[C@H](CO)[C@@H](O)[C@H](O)[C@H]1O [Compound 2, α-homonojirimycin]	–	–	–	–	–	–	inhibition of α-glucosidase activity, in words (α-glucosidase): potent inhibitors of α-glucosidase activity
OC[C@H]1N[C@@H](c2ccccc2)[C@@H](O)[C@@H](O)[C@@H]1O [Compound 9, β-1-C-Phenyl Deoxymannojirimycin]	0.002	5.5e-06	6.3	more potent fucosidase inhibitor than is DMJ (10)	1	50	–
OC[C@H]1NC[C@@H](O)[C@@H](O)[C@@H]1O [Compound 10, deoxymannojirimycin]	–	–	7.2	–	–	–	inhibition of mannosidase activity, in words (α-D-mannosidase): showed any inhibition of mannosidase activity; inhibition at 1000 µM (α-D-mannosidase; read-out: Other specificities (% inhibition at 1 mM): α-D-mannosidase, human liver extract, 1 mM compound): 64%
